Columns and labels:
[1] = test system: SD rats; test: Heritability test of F1 phenodeviant rats bred to SD rats; format: in vivo, rat
Protocol: (§1) ENU mutagenesis rat protocol: Pathogen-free inbred Wistar Furth (WF), inbred Fischer-344 (F344) and outbred Sprague Dawley (SD) male and female rats were obtained from Harlan Sprague Dawley, Inc. (Indianapolis, Ind.). All rats were given Teklad Lab Blox chow (Harlan Teklad, Madison, Wis.), acidified water ad libitum, and were housed under a 12-h light/12-h dark cycle. After a one week acclimation period, nine-week-old male rats were administered ENU as a single intraperitoneal injection; for a split dose, rats were injected with ENU once at 9 weeks of age and again at 10 weeks of age. One gram of ENU (Sigma) was dissolved in 10 mls of 95% ethanol and then diluted with 90 mls of phosphate citrate buffer prior to injection. All injections of ENU were given in the morning hours. To characterize the effect of ENU treatment on fertility in the various rat strains, mutagenized males were paired with untreated females of the same strain for consecutive 2-3 week periods, beginning 3-5 weeks after the first ENU treatment and continuing a minimum of 26 weeks post-ENU. We observed female rats for vaginal plugs, gross pregnancy and date of birth/size of litters. For our phenotypic mutant (phenodeviant) rat screening experiments, ENU-treated SD male rats were bred with SD female rats and all F1 pups were visually checked for gross abnormalities in physical development or behavior as compared to littermates at least twice prior to weaning at approximately 21 days of age. A subset of the F1 phenodeviant rats identified was bred to SD rats to determine inheritance of the observed phenotypic mutation. Several of the heritable phenodeviant rat lines are currently being maintained and backcrossed to eliminate residual ENU-induced genetic changes not associated with the phenotypic mutation.
(§2) Phenodeviant rat production: Multiple ENU dosing protocols in the SD rat strain determine their germline mutagenic potential by breeding ENU-treated SD males to females of the same strain to produce F1 offspring. These pups were examined for readily observable physical or behavioral abnormalities. Phenodeviants were identified at all doses listed in Table 2 with a variety of abnormalities observed. Phenodeviant F1 pups were born at various times between 6-52 weeks post-ENU treatment of male founders. The most frequent abnormalities visually identified were those of the eyes, tail, and growth. […] Selected phenodeviant rat F1 pups were maintained and bred to determine the heritability of the physical abnormalities (Table 3). […] These abnormalities were diverse (Table 4).

[2] = test system: SD male rats (germ line); test: Visual phenodeviant screen of F1 pups from ENU-treated SD males; format: in vivo, rat
Protocol: as §1, §2

## CCN(N=O)C(N)=O [ENU, N-ethyl-N-nitrosourea]
[1]; Line 18, F1 founder female, initial ENU dose 2 × 60 mg/kg
  ENU-induced heritable phenotype, observed phenotype: crooked tail & slit eyes
[1]; Line 18, initial ENU dose 2 × 60 mg/kg
  Heritable phenotype confirmed in multiple litters: yes
[1]; Line 19, F1 founder male, initial ENU dose 2 × 50 mg/kg
  ENU-induced heritable phenotype, observed phenotype: growth on tail
[1]; Line 19, initial ENU dose 2 × 50 mg/kg
  Heritable phenotype confirmed in multiple litters: yes
[1]; Line 28, F1 founder female, initial ENU dose 2 × 60 mg/kg
  ENU-induced heritable phenotype, observed phenotype: red ring eyes
[1]; Line 28, initial ENU dose 2 × 60 mg/kg
  Heritable phenotype confirmed in multiple litters: yes
[1]; Line 29, F1 founder female, initial ENU dose 2 × 60 mg/kg
  ENU-induced heritable phenotype, observed phenotype: oblong face
[1]; Line 29, initial ENU dose 2 × 60 mg/kg
  Heritable phenotype confirmed in multiple litters: yes
[1]; Line 32, F1 founder female, initial ENU dose 2 × 60 mg/kg
  ENU-induced heritable phenotype, observed phenotype: slit eyes
[1]; Line 32, initial ENU dose 2 × 60 mg/kg
  Heritable phenotype confirmed in multiple litters: yes
[1]; Line 38, F1 founder male, initial ENU dose 2 × 60 mg/kg
  ENU-induced heritable phenotype, observed phenotype: curved tail
[1]; Line 38, initial ENU dose 2 × 60 mg/kg
  Heritable phenotype confirmed in multiple litters: yes
[1]; Line 42, F1 founder female, initial ENU dose 2 × 60 mg/kg
  ENU-induced heritable phenotype, observed phenotype: bald spots
[1]; Line 42, initial ENU dose 2 × 60 mg/kg
  Heritable phenotype confirmed in multiple litters: yes
[1]; Line 60, F1 founder female, initial ENU dose 2 × 60 mg/kg
  ENU-induced heritable phenotype, observed phenotype: scaly skin
[1]; Line 60, initial ENU dose 2 × 60 mg/kg, only one litter to date
  Heritable phenotype confirmed in multiple litters: no^a
[1]; Line 61, F1 founder male, initial ENU dose 2 × 60 mg/kg
  ENU-induced heritable phenotype, observed phenotype: swollen feet
[1]; Line 61, initial ENU dose 2 × 60 mg/kg, only one litter to date
  Heritable phenotype confirmed in multiple litters: no^a
[1]; Line 63, initial ENU dose 2 × 60 mg/kg
  Heritable phenotype confirmed in multiple litters: yes
[1]; SD, ENU dose 100 mg/kg
  # phenodeviants heritable: 0
  # phenodeviants non-heritable: 4
  # phenodeviants unknown (sterile, not evaluated, being evaluated or died): 4
[1]; SD, ENU dose 120 mg/kg
  # phenodeviants heritable: 0
  # phenodeviants non-heritable: 2
  # phenodeviants unknown (sterile, not evaluated, being evaluated or died): 1
[1]; SD, ENU dose 2 × 50 mg/kg
  # phenodeviants heritable: 1
  # phenodeviants non-heritable: 4
  # phenodeviants unknown (sterile, not evaluated, being evaluated or died): 2
[1]; SD, ENU dose 2 × 60 mg/kg
  # phenodeviants heritable: 9
  # phenodeviants non-heritable: 9
  # phenodeviants unknown (sterile, not evaluated, being evaluated or died): 61
[1]; SD, single dose protocols
  heritability of mutations in phenodeviants tested: none of the six phenodeviant rats tested showed heritable mutations
[2]; single dose 100 mg/kg
  F1 phenodeviant rats, abnormality observed: behavioral: 1
  F1 phenodeviant rats, abnormality observed: craniofacial: 0
  F1 phenodeviant rats, abnormality observed: ear: 1
  F1 phenodeviant rats, abnormality observed: eye: 5
  F1 phenodeviant rats, abnormality observed: gonad: 1
  F1 phenodeviant rats, abnormality observed: growth (<50% littermates): 0
  F1 phenodeviant rats, abnormality observed: limb/digit: 0
  F1 phenodeviant rats, abnormality observed: multiple: 0
  F1 phenodeviant rats, abnormality observed: skin/hair: 0
  F1 phenodeviant rats, abnormality observed: tail: 0
[2]; single dose 100 mg/kg, 1251 F1 rats examined
  total number of phenodeviants: 8
[2]; single dose 120 mg/kg
  F1 phenodeviant rats, abnormality observed: behavioral: 0
  F1 phenodeviant rats, abnormality observed: craniofacial: 0
  F1 phenodeviant rats, abnormality observed: ear: 1
  F1 phenodeviant rats, abnormality observed: eye: 1
  F1 phenodeviant rats, abnormality observed: gonad: 0
  F1 phenodeviant rats, abnormality observed: growth (<50% littermates): 0
  F1 phenodeviant rats, abnormality observed: limb/digit: 0
  F1 phenodeviant rats, abnormality observed: multiple: 0
  F1 phenodeviant rats, abnormality observed: skin/hair: 0
  F1 phenodeviant rats, abnormality observed: tail: 1
[2]; single dose 120 mg/kg, 419 F1 rats examined
  total number of phenodeviants: 3
[2]; split dose 2 × 50 mg/kg
  F1 phenodeviant rats, abnormality observed: behavioral: 0
  F1 phenodeviant rats, abnormality observed: craniofacial: 0
  F1 phenodeviant rats, abnormality observed: ear: 0
  F1 phenodeviant rats, abnormality observed: eye: 4
  F1 phenodeviant rats, abnormality observed: gonad: 0
  F1 phenodeviant rats, abnormality observed: growth (<50% littermates): 0
  F1 phenodeviant rats, abnormality observed: limb/digit: 0
  F1 phenodeviant rats, abnormality observed: multiple: 0
  F1 phenodeviant rats, abnormality observed: skin/hair: 0
  F1 phenodeviant rats, abnormality observed: tail: 3
[2]; split dose 2 × 50 mg/kg, 782 F1 rats examined
  total number of phenodeviants: 7
[2]; split dose 2 × 60 mg/kg
  F1 phenodeviant rats, abnormality observed: behavioral: 0
  F1 phenodeviant rats, abnormality observed: craniofacial: 2
  F1 phenodeviant rats, abnormality observed: ear: 0
  F1 phenodeviant rats, abnormality observed: eye: 37
  F1 phenodeviant rats, abnormality observed: gonad: 0
  F1 phenodeviant rats, abnormality observed: growth (<50% littermates): 10
  F1 phenodeviant rats, abnormality observed: limb/digit: 5
  F1 phenodeviant rats, abnormality observed: multiple: 6
  F1 phenodeviant rats, abnormality observed: skin/hair: 6
  F1 phenodeviant rats, abnormality observed: tail: 13
[2]; split dose 2 × 60 mg/kg, 5163 F1 rats examined
  total number of phenodeviants: 79
